Measured values as given in PubChem BioAssay (NCI).
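Step 1: Grow cells in 96-well plates. Step 2: Expose to compound for 48 hours at 5 concentrations. Step 3: Interpolate endpoints linearly; if unreached, use highest concentration. TGI denotes the concentration required for complete inhibition of growth.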

Legend:
Assay in all cases: DTP human tumour cell line panel, 48 h
[1] = system: 786-0 renal
[2] = system: HOP-62 NSCLC
[3] = system: K-562 leukemia
[4] = system: M14 melanoma
[5] = system: OVCAR-3 ovarian
[6] = system: RPMI-8226 leukemia
[7] = system: RXF 393 renal
[8] = system: SK-OV-3 ovarian
[9] = system: T-47D breast
[10] = system: SK-MEL-2 melanoma
[11] = system: HOP-92 NSCLC

Structure (SMILES) | TGI [1] [µM] | TGI [2] [µM] | TGI [3] [µM] | TGI [4] [µM] | TGI [5] [µM] | TGI [6] [µM] | TGI [7] [µM] | TGI [8] [µM] | TGI [9] [µM] | TGI [10] [µM] | TGI [11] [µM]
CC#CC(O)(C(=O)OC1CC(C)N(C)C(C)(C)C1)C1CCCC1 (stereo not drawn) | > 100 | > 100 | > 100 | > 100 | > 100 | > 100 | > 100 | > 100 | > 100 |  | 
COC(=O)N1N=C(c2ccccc2)C1c1ccccc1 (stereo not drawn) | > 100 |  | 72.7 | > 100 | > 100 | > 100 | > 100 | > 100 | > 100 | > 100 | 
O=C(CC(C(=O)c1ccco1)c1ccco1)c1ccco1 (stereo not drawn) | > 100 | > 100 | > 100 | > 100 | > 100 | > 100 | > 100 | > 100 | > 100 |  | > 100
O=C(/C=C/c1ccc2c(c1)OCO2)Cc1nc2ccccc2[nH]c1=O | 32.5 | 35.2 | > 100 | > 100 | 81.5 | > 100 | 33.6 | 33.5 | 34.2 | 50.7 | 73.3
O=C(OCC1OC(n2nc(Cn3nnc(-c4cccnc4)n3)n(-c3cccc4ccccc34)c2=S)C(OC(=O)c2ccccc2)C1OC(=O)c1ccccc1)c1ccccc1 (stereo not drawn) | > 100 | > 100 | > 100 | > 100 | > 100 | > 100 | > 100 | > 100 | > 100 | > 100 | > 100
COC(=O)C1(O)C(c2ccccc2)=NC2(C)CCCC21 (stereo not drawn) | > 100 | > 100 | > 100 | > 100 | > 100 | > 100 | > 100 | > 100 | > 100 | > 100 | > 100
Clc1ccc(/C(=C\c2ccccc2)Cn2ccnc2)cc1 | 38.5 | 38.3 | > 100 | 39.4 |  | 73.7 | 42.2 | 36.3 | 69.9 | 30.3 | 39.4
O=C(CC(=O)Nc1ccccc1)NNC(c1cc(N=Nc2ccc(Br)cc2)ccc1O)P(O)O (stereo not drawn) | > 10 | > 10 | > 10 | 3.84 | > 10 | > 10 | > 10 | > 10 | > 10 | > 10 | > 10
CC(C)N1CN(c2ccccc2)C2(CCN(CCCC(=O)c3ccc(F)cc3)CC2)C1=O | > 60.7 | 11.9 | 69.7 | 31.1 | 65.6 | 31.1 | > 82.2 | > 100 | 40.8 | 28.3 | 16.6
CCOP(=O)(OCC)OC1CC(n2cc(C)c(=O)n(C)c2=O)OC1CO[Si](C)(C)C(C)(C)C (stereo not drawn) | > 100 | > 100 | > 100 | > 100 | > 100 | > 100 | > 100 | > 100 | > 100 | > 100 | 
